Biological target: α4β3δ GABAA receptor (Homo sapiens, UniProt P28472+P48169)
Assay: whole-cell patch clamp, potentiation of GABA EC20 current
Type: cell-based

α4β3δ GABAA receptor, sequence (P48169 36-554): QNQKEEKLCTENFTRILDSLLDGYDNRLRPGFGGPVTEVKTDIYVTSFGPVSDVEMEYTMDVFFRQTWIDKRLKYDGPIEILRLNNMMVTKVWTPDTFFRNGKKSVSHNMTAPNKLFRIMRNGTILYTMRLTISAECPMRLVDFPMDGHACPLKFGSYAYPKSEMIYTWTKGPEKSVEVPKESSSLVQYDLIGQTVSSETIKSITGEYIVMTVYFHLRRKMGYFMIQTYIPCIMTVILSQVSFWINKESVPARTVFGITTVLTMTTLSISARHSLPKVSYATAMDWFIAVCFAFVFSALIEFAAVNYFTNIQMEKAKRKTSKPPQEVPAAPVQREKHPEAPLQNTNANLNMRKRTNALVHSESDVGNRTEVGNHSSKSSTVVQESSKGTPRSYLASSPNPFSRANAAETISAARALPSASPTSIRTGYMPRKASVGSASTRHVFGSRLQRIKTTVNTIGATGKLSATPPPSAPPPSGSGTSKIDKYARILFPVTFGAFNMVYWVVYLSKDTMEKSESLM
α4β3δ GABAA receptor, sequence (P28472 26-473): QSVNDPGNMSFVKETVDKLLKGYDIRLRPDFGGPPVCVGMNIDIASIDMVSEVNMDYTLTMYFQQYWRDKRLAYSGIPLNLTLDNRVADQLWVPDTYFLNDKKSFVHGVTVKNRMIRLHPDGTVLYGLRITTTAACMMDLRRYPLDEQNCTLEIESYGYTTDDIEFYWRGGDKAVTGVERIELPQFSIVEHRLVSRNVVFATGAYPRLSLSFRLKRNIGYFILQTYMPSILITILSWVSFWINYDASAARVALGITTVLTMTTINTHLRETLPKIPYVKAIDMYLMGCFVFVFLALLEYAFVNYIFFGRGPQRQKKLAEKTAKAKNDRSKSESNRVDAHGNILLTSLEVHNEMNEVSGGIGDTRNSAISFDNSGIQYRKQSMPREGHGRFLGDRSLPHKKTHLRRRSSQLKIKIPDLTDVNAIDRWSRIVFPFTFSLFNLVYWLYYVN
α4β3δ GABAA receptor, sequence (O14764 25-452 partner): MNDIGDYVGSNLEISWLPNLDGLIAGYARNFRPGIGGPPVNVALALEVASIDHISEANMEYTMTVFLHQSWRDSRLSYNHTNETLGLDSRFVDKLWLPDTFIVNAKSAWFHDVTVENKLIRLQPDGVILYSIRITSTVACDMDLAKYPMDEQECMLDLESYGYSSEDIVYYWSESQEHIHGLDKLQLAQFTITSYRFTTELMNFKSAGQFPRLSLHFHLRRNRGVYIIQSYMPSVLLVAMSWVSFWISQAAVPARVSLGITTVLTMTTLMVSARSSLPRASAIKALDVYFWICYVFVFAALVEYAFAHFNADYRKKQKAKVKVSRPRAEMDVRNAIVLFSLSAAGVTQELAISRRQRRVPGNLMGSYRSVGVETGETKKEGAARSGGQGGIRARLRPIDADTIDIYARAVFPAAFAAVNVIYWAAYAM

Q: With `CC(=O)[C@H]1CC[C@H]2[C@@H]3CC[C@H]4C[C@H](O)CC[C@]4(C)[C@H]3CC[C@]12C` [ALLO] as the compound, how does the EC50 read?
A: The EC50 was 57 nM.

— article PMC5148695 (Neuropharmacology, 2016)
